Experimental data: patent US11426372B2, “Glycolic acid protects against ischemic insults” (priority 2015, dated 2022)
“Also recorded” adds a separate entry of the source.

Key:
[1] = estimated; cited from earlier work
Rabbits = experiment: Model of intestinal ischemia (mesenteric ligation); type: in vivo, rabbit; settings: injected intraarterially upon removal of the ligation or systemically before ligation
Experimental: Rabbits are anesthetized with 3% barbital, 30-35 mg/intravenous injections. The small intestine is reflected to the left of the abdominal incision and then the SMA and SMV are identified. Mesenteric ischemia is confirmed when the mesenteric pulsation is lost and the intestine becomes pale. Ligation is maintained for 2, 4 and 6 hours. […] After removing the ligation, the animal is led free for 1 and 3 days and then is intracardially perfused. Intestinal samples are embedded in paraffin and sections are stained with a nuclear staining. Nuclear size distribution is analysed in different ischemic areas and compared to that of non-ischemic areas.

Mice [2] = experiment: In vivo model of limb ischemia (unilateral femoral ligatures); set-up: species or system mouse; settings: injected systemically when ligatures are removed or before ligation
Experimental: In vivo model of limb ischemia: Mice are submitted to unilateral femoral ligatures for a few hours (4-5) to a few days. Glycolic acid or vehicle are injected systemically when the ligatures are removed. Alternatively, glycolic acid is given before ligation systemically. Ischemia is confirmed by clinical scores (tissue and functional damages by gait analysis) and methoxyisobutylisonitrile (MIBI) scintigraphies at different days 0, 4, 6, 10, 20, and 30. Histological analysis is also performed to determine the extension of the ischemia.

cardiomyocytes = experiment: Ischaemia-reperfusion in isolated cardiomyocytes; type: cell-based, mouse; settings: simulated ischaemia-reperfusion
Experimental: Ischaemia-reperfusion in isolated cardiomyocytes: Freshly isolated cardiomyocytes are obtained from mouse hearts by retrograde collagenase perfusion. Rhod-shaped calcium tolerant cardiomyocytes are selected by differential centrifugation and albumin gradient and are plated on laminin-coated glass bottom coverslips (for confocal studies) or on 4% fetal calf serum pretreated multiwell dishes. To simulate IR in cardiomyocytes, two independent approaches are used: anoxic workstation under controlled atmosphere of 0% 02-5% H2 at 37° C. (Invivo2 Workstation Ruskinn, Bridgend, UK) and microscope-adapted microperfusion chamber (RC-43C/BS4 64-0371 Harvard Apparatus, Holliston, Mass., USA). For the anoxic workstation, cardiomyocytes are plated in 96-wells dishes, placed within the anoxic atmosphere and incubated for 15 min with glucose-free acidic ischaemic buffer (previously deoxygenated in an autoclave and bubbled with N2 for 20 min) containing (in mmol/l): 140 NaCl, 3.6 KCl, 1.2 MgSO4, 1 CaCl2, 20 HEPES, pH 6.4, and supplemented with 4 μmol/l resazurin, 100 μmol/l ascorbic acid, 0.5 mmol/l dithionite and 100 U/ml superoxide dismutase. For reperfusion, ischaemic buffer is washed out and oxygenated, glucose-containing control buffer (pH 7.4) is added for 10 min. […]

mouse cortical neurons [3] = experiment: In vitro model of stroke: number of cortical neurons alive / survival rate 24 hours after ischemia; type: cell-based; settings: for survival rate of mouse cortical neurons 24 hours after ischemic insult: 45 minutes ischemic insult, P<0.05; for number of cortical neurons alive / survival rate 24 hours after ischemia: penumbra like conditions, 60 minutes ischemic insult, P<0.001
Experimental: (§1) In order to mimic neuronal ischemia in vitro, primary cortical neurons were culture in vitro for 6 days. After this time either a total ischemia or a partial ischemia were performed.
(§2) Total ischemia: on the day of ischemia medium was changed to PBS (pH=6.5) that had been previously bubbled with N2 to remove all O2. In the case of total ischemia, in order to ensure total lack of oxygen in the PBS, dithionite was added to the PBS to capture the remaining diluted O2. This process ensured the absence of both nutrients and O2 as it would be expected at the core of a stroke.
(§3) Penumbra: to mimic penumbra, normal medium was changed to a mixture of medium without antioxidants and PBS (50:50) and bubbled with N2 to remove diluted O2.
(§4) In both protocols neurons were then placed inside a gas chamber filled with N2 and left there for 45 minutes (ischemia) or 1 hour (penumbra). In order to mimic reperfusion, PBS or medium/PBS were then substituted with medium without antioxidants and left in the incubator overnight.
(§5) Normoxia: to mimic normoxia, normal medium was changed with normal medium without antioxidants and placed in the incubator under normal conditions for 45 minutes or 1 hour. Then medium was exchanged again with normal medium and left overnight in the incubator.
(§6) In all conditions neurons were fixed and stained with DRAQS (a nuclear marker) and NeuN (a neuronal marker) on the next day. Images were taking with an OPERA microscope and analysed with the help of FIJI Image analysis software. The more reliable outcome parameter to detect apoptosis was the surface of the nuclei in μm2 and the number of neurons alive after 24 hours. As it can be observed in FIGS. 1 and 2, the frequency distribution of nuclear sizes dramatically changed between normoxia and ischemia without treatment.

Mice [4] = experiment: Transient filament MCA occlusion model (fMCAo) with infarct volumetry; type: in vivo, mouse
Description: Transient filament MCA occlusion model (fMCAo): Mice are anaesthetized with isoflurane delivered in a mixture of 30% O2 and 70% N2O. An incision is made between the ear and the eye in order to expose the temporal bone. A laser Doppler probe is affixed to the skull above the MCA territory, and mice are placed in the supine position. An incision is made in the midline neck region, and the common carotid artery and left external carotid artery are isolated and ligated; a 2-mm silicon-coated filament (Doccol, #701912PKRe) is inserted into the internal carotid artery, and MCA occlusion is confirmed by a corresponding decrease in blood flow (i.e., a decrease in the laser Doppler flow signal). After 60 minutes of occlusion the filament is removed and either the vehicle, or 5, 10, 20 or 40 mM of GA (concentration for the total expected infact area) is injected. […]
Infarct volumetry: Brains are removed 24 and 72 hours after stroke induction and frozen on powdered dry ice. […] Infarct area is measured in each section using ImageJ software (NIH). In the fMCAo model, an edema correction for infarct volume is calculated using the following formula: (Ischemic area)=(Direct lesion volume)−[(Ipsilateral hemisphere)−(Contralateral hemisphere)] was performed. The total infarct volume is calculated by integrating the measured areas and intervals between the sections.

mouse cortical neurons [5] = experiment: In vitro model of stroke: LDH released to the media (PIERCE LDH cytotoxicity assay); type: cell-based; settings: for concentration of LDH in the media 24 hours after the ischemic insult: 45 minutes ischemic insult, vs ischemic non-treated neurons, p<0.05
Experimental: as §1, §2, §3, §4, §5
Additionally, the amount of LDH released to the media was determined. LDH is released to the media during necrosis (immediate cell death after an insult, 0-6 hours after insult) and in the late stages of apoptosis in vitro (6 to 24 hours after insult) through the disruption of the plasmatic membrane. For this we used the PIERCE LDH CYTOTOXICITY ASSAY from Life Technologies.

primary cortical neurons = experiment: In vitro model of stroke: nuclear size (apoptotic nuclei) of cortical neurons 24 hours after ischemia; type: cell-based, mouse; settings: for number of apoptotic neurons (nuclear size <30 μm2): vs non-treated neurons during ischemia
Experimental: as §1, §2, §3, §4, §5, §6

mouse hearts = experiment: Ischaemia-reperfusion in perfused hearts (Langendorff); settings: 60 min global ischaemia, 60 min reperfusion with 5, 10, 20 or 40 mM glycolic acid
Experimental: Ischaemia-reperfusion in perfused hearts: Ischemia reperfusion in perfused hearts is performed. After sodium pentobarbital overdose (150 mg/kg i. p.), mouse hearts are quickly excised and perfused through the aorta in a Langendorff apparatus with a modified Krebs-Henseleit bicarbonate buffer (in mmol/l: 140 NaCl, 24 NaHCO3, 2.7 KCl, 0.4 KH2PO4, 1 MgSO4, 1.8 CaCl2 and 11 glucose, 95% O2-5% CO2 at 37° C.) at constant flow perfusion pressure of 80 mmHg. Left ventricular (LV) pressure is monitored with a water-filled latex balloon inserted into the LV and inflated to obtain an end-diastolic pressure (LVEDP) of 6-8 mmHg. LV developed pressure (LVdevP) is calculated as the difference between LV systolic pressure and LVEDP. After 30 minutes (min) of normoxic perfusion, mouse hearts are subjected to 60 min of normothermic global ischaemia followed by 60 min of reperfusion with vehicle or 5, 10, 20 or 40 mM glycolic acid. Lactate dehydrogenase (LDH) activity is spectrophotometrically measured in samples collected from the coronary effluent at different times throughout the perfusion period and was considered an indirect measure of necrosis. After 60 min of reperfusion, heart slices were incubated in […] to outline the area of necrosis. Hearts submitted to normoxic perfusion during 120 min served as time control series. […]

**Q.** For `OCCOCCO` [diethylene glycol], which minimum toxic dose [1] is on record?
**A.** 0.14 mg glycolic acid per kg of body weight

**Q.** With `O=C(O)CO` [glycolic acid, 2-hydroxyethanoic acid] as the compound, how does the “number of apoptotic nuclei and ischemic areas” value (Rabbits) read?
**A.** reduce the number of apoptotic nuclei and the ischemic areas

**Q.** And the “extension of the ischemia and cell death” value (Mice [2])?
**A.** reduce the extension of the ischemia and cell death

**Q.** What about the “number of cardiomyocytes alive 24 hours after ischemia” value (cardiomyocytes) of the same compound?
**A.** increased number of cardiomyocytes alive

**Q.** What about the “survival rate of mouse cortical neurons 24 hours after ischemic insult” value (shortened to “survival rate … after ischemic insult”) (mouse cortical neurons [3]; 2.5 mM during reperfusion) of the same compound?
**A.** increases the survival rate

**Q.** What about the “survival rate … after ischemic insult” value (mouse cortical neurons [3]; 5 mM during reperfusion) of the same compound?
**A.** increases the survival rate

**Q.** And the “survival rate … after ischemic insult” value (mouse cortical neurons [3]; 5 mM during reperfusion, listed as GA)?
**A.** enough to rescue the effect of the ischemia

**Q.** And the “number of cortical neurons alive / survival rate 24 hours after ischemia” value (mouse cortical neurons [3]; 10 mM during reperfusion)?
**A.** increased cortical neurons survival; also recorded: increases the survival rate

**Q.** And the “number of cortical neurons alive / survival rate 24 hours after ischemia” value (mouse cortical neurons [3]; 20 mM during reperfusion)?
**A.** increases the survival rate

**Q.** And the “survival of mouse cortical neurons” value (mouse cortical neurons [3]; concentrations lower than 5 mM given during reperfusion (data not shown))?
**A.** did not increase survival

**Q.** And the “neuronal cell death / protection against ischemia, 24 hours after ischemia” value (mouse cortical neurons [3]; mouse cortical neurons, vs non-treated neurons undergoing ischemia, applied before ischemia or during reperfusion)?
**A.** protects neurons from ischemia; also recorded: significantly decreases neuronal cell death; also recorded: protects against different degrees of ischemia both when applied before or after the acute ischemic insult

**Q.** What about the “protection of neurons in normoxia conditions” value (mouse cortical neurons [3]; pretreatment with 2.5 mM) of the same compound?
**A.** protects neurons against the adverse conditions inherent to an in vitro setting

**Q.** What about the “protection of neurons in normoxia conditions” value (mouse cortical neurons [3]; pretreatment with 5 mM) of the same compound?
**A.** protects neurons against the adverse conditions inherent to an in vitro setting

**Q.** What about the “decrease in blood flow” value (Mice [4]; 5, 10, 20 or 40 mM GA injected after 60 minutes of occlusion) of the same compound?
**A.** less severe decrease in blood flow

**Q.** What about the infarct volume (Mice [4]; brains removed 24 and 72 hours after stroke induction) of the same compound?
**A.** reduce the infarct volume size

**Q.** And the “concentration of LDH in the media 24 hours after the ischemic insult” value (mouse cortical neurons [5]; 2.5 mM during reperfusion)?
**A.** decrease the concentration of LDH significantly; also recorded: reduces apoptosis

**Q.** What about the “concentration of LDH in the media 24 hours after the ischemic insult” value (mouse cortical neurons [5]; 5 mM during reperfusion) of the same compound?
**A.** decrease the concentration of LDH significantly; also recorded: reduces apoptosis

**Q.** And the “concentration of LDH in the media” value (mouse cortical neurons [5]; concentrations lower than 5 mM given during reperfusion)?
**A.** decreased the concentration of LDH in the media

**Q.** And the “effect on LDH levels in normoxia” value (mouse cortical neurons [5]; normoxic conditions, 2.5 and 5 mM)?
**A.** did not observe any difference between treatments; also recorded: cannot be observed

**Q.** What about the “more normal size nuclei (nuclear surface >30 μm2) 24 hours after ischemia” value (primary cortical neurons; 5 mM pretreatment or 10 and 20 mM during reperfusion, vs control neurons that underwent ischemia without treatment) of the same compound?
**A.** up to 65%

**Q.** And the “number of apoptotic neurons (nuclear size <30 μm2)” value (“number of apoptotic neurons” for short) (primary cortical neurons; 10 mM during reperfusion, p<0.01)?
**A.** reduces the number of apoptotic neurons

**Q.** What about the “shift of the nuclear size to smaller apoptotic nuclei induced by ischemia” value (from here on “shift of the nuclear size”) (primary cortical neurons; 10 mM glycolic acid during reperfusion) of the same compound?
**A.** partially reversed

**Q.** And the “number of apoptotic neurons” value (primary cortical neurons; 20 mM during reperfusion, p<0.01)?
**A.** reduces the number of apoptotic neurons

**Q.** What about the “shift of the nuclear size” value (primary cortical neurons; 20 mM glycolic acid during reperfusion) of the same compound?
**A.** partially reversed

**Q.** And the “shift of the nuclear size” value (primary cortical neurons; 4 days pretreatment with 5 mM glycolic acid)?
**A.** partially reversed

**Q.** And the “protective effect (rescue)” value (primary cortical neurons; penumbra conditions)?
**A.** 100%

**Q.** And the “number of apoptotic neurons” value (primary cortical neurons; pre-treatment with 5 mM, p<0.05)?
**A.** reduces the number of apoptotic neurons

**Q.** And the “shift of the nuclear size” value (primary cortical neurons; pretreatment with 2.5 mM glycolic acid)?
**A.** partially reversed

**Q.** What about the “necrosis (LDH activity, area of necrosis)” value (mouse hearts) of the same compound?
**A.** reduced necrosis compared to controls
